What is called melting point is the temperature of the solid-liquid transition. For `CC1CCCCC1Nc1c(C(=O)O)cnn2cccc12` (stereo not shown) [Compound 18e, 4-(2-methylcyclohexylamino)pyrrolo[1,2-b]pyridazine-3-carboxylic acid], the melting point is 195.1 °C. In turn, `C[C@H]1CCCC[C@H]1Nc1c(C(N)=O)cnn2cccc12` [Compound 18g, 4-((1R,2S)-2-methylcyclohexylamino)pyrrolo[1,2-b]pyridazine-3-carboxamide] yielded a melting point of 158.6 °C.

Consider `C[C@@H]1CCCC[C@@H]1Nc1c(C(N)=O)cnn2cccc12` [Compound 18i, 4-((1S,2R)-2-methylcyclohexylamino)pyrrolo[1,2-b]pyridazine-3-carboxamide], for which the melting point turned out to be 154.7 °C. The result for `Cc1nc(C(CC(C)C)Nc2c(C#N)cnn3cccc23)sc1C` (stereo not shown) [Compound 49b, 4-(1-(4,5-Dimethylthiazol-2-yl)-3-methylbutylamino)pyrrolo[1,2-b]pyridazine-3-carbonitrile] reads 137.9 °C; that for `CC(C)(CNc1c(C#N)cnn2cccc12)N1CCOCC1` [Compound 49e, 4-(2-methyl-2-morpholinopropylamino)pyrrolo[1,2-b]pyridazine-3-carbonitrile], 178.8 °C; that for `CN(C)C(CNc1c(C#N)cnn2cccc12)c1ccco1` (stereo not shown) [Compound 49h, 4-(2-(dimethylamino)-2-(furan-2-yl)ethylamino)pyrrolo[1,2-b]pyridazine-3-carbonitrile], 106.9 °C. With `N#Cc1cnn2cccc2c1NC1(c2ccc(Cl)cc2Cl)CC1` [Compound 49k, 4-(1-(2,4-dichlorophenyl)cyclopropylamino)pyrrolo[1,2-b]pyridazine-3-carbonitrile], the melting point is 207.7 °C. Consider `COc1ccccc1C(CNc1c(C#N)cnn2cccc12)N1CCOCC1` (stereo not shown) [Compound 50b, 4-(2-(2-methoxyphenyl)-2-morpholinoethylamino)pyrrolo[1,2-b]pyridazine-3-carbonitrile], for which the melting point was determined as 156.9 °C. For `NC(=O)c1cnn2cccc2c1NC1CCC(O)CC1` (stereo not shown) [Compound 51i, 4-(4-hydroxycyclohexylamino)pyrrolo[1,2-b]pyridazine-3-carboxamide], the melting point was determined as 192.2 °C. For the compound `N#Cc1cnn2cccc2c1NCC1CCCO1` (stereo not shown) [Compound 51k, 4-((tetrahydrofuran-2-yl)methylamino)pyrrolo[1,2-b]pyridazine-3-carbonitrile], the melting point is 101.8 °C. In the case of `NC(=O)c1cnn2cccc2c1NCC1CCCO1` (stereo not shown) [Compound 51m, 4-((tetrahydrofuran-2-yl)methylamino)pyrrolo[1,2-b]pyridazine-3-carboxamide], the melting point was 120 °C.

`N#Cc1cnn2cccc2c1NC1CCCC1` [Compound 52b, 4-(cyclopentylamino)pyrrolo[1,2-b]pyridazine-3-carbonitrile] showed a melting point of 102.9 °C.

In turn, `N#Cc1cnn2cccc2c1Nc1ccccc1` [Compound 52e, 4-(phenylamino)pyrrolo[1,2-b]pyridazine-3-carbonitrile] gave a melting point of 163.5 °C.

Turning to `NC(=O)c1cnn2cccc2c1Nc1ccccc1` [Compound 52f, 4-(phenylamino)pyrrolo[1,2-b]pyridazine-3-carboxamide], the melting point is 247.2 °C. For `N#Cc1cnn2cccc2c1NC1CCCCCC1` [Compound 52h, 4-(cycloheptylamino)pyrrolo[1,2-b]pyridazine-3-carbonitrile], the melting point worked out at 108 °C.

In the case of `NC(=O)c1cnn2cccc2c1NC1CCCCCC1` [Compound 52i, 4-(cycloheptylamino)pyrrolo[1,2-b]pyridazine-3-carboxamide], the melting point stood at 279.2 °C.

Values taken from patent US20120149691A1, “Pyrrolo [1,2-b] Pyridazine Derivatives as Janus Kinase Inhibitors” (BioCryst Pharmaceuticals, Inc., priority 2009, published 2012).
